Assay results as given in patent US20240270762A1, “PENICILLIN-BINDING PROTEIN INHIBITORS” (priority 2021, published 2024).
In brackets after ≈: the same amount, converted by molar mass.

Assays:
[1] = tested on: A. baumannii CDC-0045; experiment: microbe, parasite or virus in culture; format: cell-based; conditions: Acinetobacter baumannii, CDC0045, read-out: MIC, A. baumannii CDC-0045
[2] = tested on: P. aeruginosa ATCC 35151; experiment: microbe, parasite or virus in culture; format: cell-based; conditions: Pseudomonas aeruginosa, ATCC35151, read-out: Minimum inhibitory concentration, P. aeruginosa ATCC 35151
[3] = tested on: P. aeruginosa (ΔmexAB-oprM); experiment: Broth microdilution MIC in iron-depleted CAMHB (IDM); format: cell-based; conditions: Pseudomonas aeruginosa; iron-depleted CAMHB (IDM); […]; read-out: Minimum inhibitory concentration, P. aeruginosa ΔmexAB-oprM
[4] = tested on: A. baumannii ATCC 17978; experiment: microbe, parasite or virus in culture; format: cell-based; conditions: Acinetobacter baumannii, ATCC17978, read-out: MIC, A. baumannii ATCC 17978
[5] = tested on: A. baumannii CDC-0083; experiment: microbe, parasite or virus in culture; format: cell-based; conditions: Acinetobacter baumannii, CDC0083, read-out: MIC, A. baumannii CDC-0083
[6] = tested on: A. baumannii 1258916; experiment: microbe, parasite or virus in culture; format: cell-based, Acinetobacter baumannii; conditions: Acinetobacter baumannii, 1258916, read-out: MIC, A. baumannii 1258916
[7] = tested on: P. aeruginosa CDC-0090; experiment: microbe, parasite or virus in culture; format: cell-based; conditions: Pseudomonas aeruginosa, CDC0090, read-out: Minimum inhibitory concentration, P. aeruginosa CDC-0090
[8] = target: T1, PBP1a from Acinetobacter baumannii (ATCC 19606) (Acinetobacter baumannii, UniProt A0ABX6CK30); experiment: Bocillin-FL fluorescence polarization competition binding, A. baumannii PBP1a; conditions: fluorescence polarization competition binding assay using Bocillin-FL; read-out: A. baumannii PBP1a Potency
T1 sequence (A0ABX6CK30 1-851): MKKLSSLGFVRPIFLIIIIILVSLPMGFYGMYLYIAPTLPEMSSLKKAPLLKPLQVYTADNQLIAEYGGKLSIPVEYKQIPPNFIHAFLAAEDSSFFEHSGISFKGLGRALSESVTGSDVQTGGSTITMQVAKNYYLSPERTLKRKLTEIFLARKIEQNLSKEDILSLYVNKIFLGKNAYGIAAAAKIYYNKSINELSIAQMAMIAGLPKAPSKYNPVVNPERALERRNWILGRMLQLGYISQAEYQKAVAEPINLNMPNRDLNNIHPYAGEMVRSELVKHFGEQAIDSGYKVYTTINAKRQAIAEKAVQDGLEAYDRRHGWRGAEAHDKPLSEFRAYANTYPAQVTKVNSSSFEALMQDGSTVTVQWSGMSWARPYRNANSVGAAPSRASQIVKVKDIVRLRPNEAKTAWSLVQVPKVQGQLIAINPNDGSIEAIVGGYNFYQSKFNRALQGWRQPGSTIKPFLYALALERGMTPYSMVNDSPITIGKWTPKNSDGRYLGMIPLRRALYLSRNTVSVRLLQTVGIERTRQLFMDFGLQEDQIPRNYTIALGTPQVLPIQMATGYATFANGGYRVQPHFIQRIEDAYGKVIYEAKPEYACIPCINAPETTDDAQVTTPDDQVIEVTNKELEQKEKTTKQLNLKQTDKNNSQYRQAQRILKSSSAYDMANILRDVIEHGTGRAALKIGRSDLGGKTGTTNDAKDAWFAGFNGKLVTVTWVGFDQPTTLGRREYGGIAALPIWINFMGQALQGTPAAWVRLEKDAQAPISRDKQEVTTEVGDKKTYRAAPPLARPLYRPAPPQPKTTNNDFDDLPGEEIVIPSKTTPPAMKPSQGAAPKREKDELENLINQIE
Text: To determine the ability of boronic acid-based test PBP inhibitors to bind Penicillin Binding Proteins (PBPs), Bocillin-FL (fluorescently-labeled penicillin V; ThermoFisher Scientific) was used in a fluorescence polarization (FP) competition binding assay to assess inhibitor binding to PBP3 from Escherichia coli (K-12), PBP3 from Pseudomonas aeruginosa (PAO1), PBP1a and PBP3 from Acinetobacter baumannii (ATCC 19606), and PBP2 from Neisseria gonorrhoeae (FA19). PBPs were cloned and purified as described previously (E. coli PBP3, King, D. T, et al., ACS Infectious Diseases 2015, 1, 175-184; P. aeruginosa PBP3, Han et. al., PNAS 2010, 107 (51), 22002-22007; A. baumannii PBPs, Penwell et. al., Antimicrob. Agents Chemother. 2015, 59 (3), 1680-1689; N. gonorrhoeae PBP2, Singh et. al., J. Biol. Chem. 2019, 294 (38), 14020-14032). To establish assay conditions for competition binding, enzyme titration/saturation binding experiments were initially performed. Bocillin-FL was prepared at 0.2 μM in a buffer comprised of 50 mM Hepes (pH 8.0), 300 mM NaCl and 10% (v/v) glycerol for reactions with E. coli, P. aeruginosa and N. gonorrhoeae PBPs, and 25 mM Tris (pH 8.0), 200 mM NaCl, 10% (v/v) glycerol and 0.005% (v/v) Tween 20 for reactions with A. baumannii PBPs. Saturation binding was performed by mixing 40 μl of PBP solutions ranging in concentrations from 0-24 μM with 40 μl of the 0.2 μM Bocillin-FL solution, in individual wells of a black 384-well microplate. FP was measured immediately upon mixing (Excitation, 490 nm; Emission, 520 nm; g-factor, 0.96), using a Cytation3 (BioTek) microplate reader and measured continuously for up to 120 minutes. The FP response stabilized after 15 minutes for P. aeruginosa and A. baumannii PBP3, 30 minutes for E. coli PBP3 and A. baumannii PBP1a, and less than 1 minute for N. gonorrhoeae PBP2. […] The competition binding assay (80 μl final volume) was validated using beta-lactams and PBPs at final concentrations of: 1.5 μM for E. coli PBP3; 0.75 μM for P. aeruginosa PBP3; 1 μM for A. baumannii PBP1a; 0.2 μM for A. baumannii PBP3; and 0.25 μM for N. gonorrhoeae PBP2. Bocillin-FL was at 0.1 μM (0.05 μM with A. baumannii PBP1a) and beta-lactam concentrations ranged from 0-1,000 μM. E. coli PBP3 was incubated with increasing concentrations of ampicillin in a black 384-well microplate (Corning) for 30 minutes. P. aeruginosa PBP3 was incubated for 15 minutes with aztreonam, whereas A. baumannii PBP1a and PBP3 were incubated for 15 minutes with meropenem, and then Bocillin-FL was added followed immediately by the FP measurement for up to 60 minutes. […] The beta-lactam potency was reported as the concentration of beta-lactam required to reduce the amount of PBP bound-Bocillin-FL by 50% (EC50). […] The EC50 of aztreonam was determined to be <0.5 μM for P. aeruginosa PBP3. […] Binding assays for boronic acid PBP inhibitors were performed in an identical fashion for the respective PBPs.

SMILES | MIC [1] [µg/mL] | MIC [2] [µg/mL] | MIC [3] [µg/mL] | MIC [4] [µg/mL] | MIC [5] [µg/mL] | MIC [6] [µg/mL] | MIC [7] [µg/mL] | IC50 [8] [µM]
O=C(O)c1cccc2c1OB(O)[C@@H](NC(=O)C(NC(=O)N1CCN(Cc3ccc(O)c(O)c3Cl)C(=O)C1=O)c1ccc(P(=O)(O)O)cc1)C2 (stereo partly drawn) [Example 24, (3R)-3-(2-(4-(2-chloro-3,4-dihydroxybenzyl)-2,3-dioxopiperazine-1-carboxamido)-2-(4-phosphonophenyl)acetamido)-2-hydroxy-3,4-dihydro-2H-benzo[e][1,2]oxaborinine-8-carboxylic acid] | < 1 | < 1 | < 1 | < 1 | < 1 | < 1 | 8 to 16 (≈ 11.2 to 22.3 µM) | > 250
CS(=O)(=O)N1CCN(C(=O)N[C@@H](C(=O)N[C@H]2Cc3ccc(F)c(C(=O)O)c3OB2O)c2ccc(P(=O)(O)O)c(F)c2F)C1=O [Example 16, (R)-3-((R)-2-(2,3-difluoro-4-phosphonophenyl)-2-(3-(methylsulfonyl)-2-oxoimidazolidine-1-carboxamido)acetamido)-7-fluoro-2-hydroxy-3,4-dihydro-2H-benzo[e][1,2]oxaborinine-8-carboxylic acid] | – | – | – | – | – | – | – | > 250
O=C(O)c1c(F)ccc2c1OB(O)[C@@H](NC(=O)C(NC(=O)N1CCN(Cc3ccc(O)c(O)c3Cl)C1=O)c1ccc(P(=O)(O)O)cc1)C2 (stereo partly drawn) [Example 46, (3R)-3-(2-(3-(2-chloro-3,4-dihydroxybenzyl)-2-oxoimidazolidine-1-carboxamido)-2-(4-phosphonophenyl)acetamido)-7-fluoro-2-hydroxy-3,4-dihydro-2H-benzo[e][1,2]oxaborinine-8-carboxylic acid] | – | < 1 | < 1 | – | – | – | 2 to 4 (≈ 2.83 to 5.66 µM) | > 250
CCN1CCN(C(=O)NC(C(=O)N[C@H]2Cc3cccc(C(=O)O)c3OB2O)c2ccc(CP(=O)(O)O)cc2)C(=O)C1=O (stereo partly drawn) [Example 20, (3R)-3-(2-(4-ethyl-2,3-dioxopiperazine-1-carboxamido)-2-(4-(phosphonomethyl)phenyl)acetamido)-2-hydroxy-3,4-dihydro-2H-benzo[e][1,2]oxaborinine-8-carboxylic acid] | – | – | – | – | – | – | – | > 250
O=C(NCCN1CCN(C(=O)NC(C(=O)N[C@H]2Cc3ccc(F)c(C(=O)O)c3OB2O)c2ccc(P(=O)(O)O)cc2)C(=O)C1=O)c1ccc(O)c(O)c1Cl (stereo partly drawn) [Example 120, (3R)-3-(2-(4-(2-(2-chloro-3,4-dihydroxybenzamido)ethyl)-2,3-dioxopiperazine-1-carboxamido)-2-(4-phosphonophenyl)acetamido)-7-fluoro-2-hydroxy-3,4-dihydro-2H-benzo[e][1,2]oxaborinine-8-carboxylic acid] | < 1 | < 1 | < 1 | < 1 | < 1 | < 1 | < 1 | –
CS(=O)(=O)N1CCN(C(=O)N[C@@H](C(=O)N[C@H]2Cc3ccc(F)c(C(=O)O)c3OB2O)c2ccc(P(=O)(O)O)c(F)c2)C1=O (single isomer, unassigned) [Example 19] | > 128 | 2 to 4 (≈ 3.09 to 6.19 µM) | 32 to 64 (≈ 49.5 to 99 µM) | 8 to 16 (≈ 12.4 to 24.8 µM) | > 128 | > 128 | > 128 | –
O=C(N[C@@H](C(=O)N[C@H]1Cc2cccc(C(=O)O)c2OB1O)c1ccc(P(=O)(O)O)cc1)c1ccc(O)c(O)c1Cl [Example 49, (R)-3-((R)-2-(2-chloro-3,4-dihydroxybenzamido)-2-(4-phosphonophenyl)acetamido)-2-hydroxy-3,4-dihydro-2H-benzo[e][1,2]oxaborinine-8-carboxylic acid] | > 128 | < 1 | < 1 | < 1 | > 128 | > 128 | 2 to 4 (≈ 3.39 to 6.77 µM) | –
CCN1CCN(C(=O)NC(C(=O)N[C@H]2Cc3cccc(C(=O)O)c3OB2O)c2cccc(CP(=O)(O)O)c2)C(=O)C1=O (stereo partly drawn) [Example 22, (3R)-3-(2-(4-ethyl-2,3-dioxopiperazine-1-carboxamido)-2-(3-(phosphonomethyl)phenyl)acetamido)-2-hydroxy-3,4-dihydro-2H-benzo[e][1,2]oxaborinine-8-carboxylic acid] | – | – | – | – | – | – | – | > 250
CS(=O)(=O)N1CCN(C(=O)N[C@@H](C(=O)N[C@H]2Cc3cccc(C(=O)O)c3OB2O)c2ccc(P(=O)(O)O)c(F)c2F)C1=O (single isomer, unassigned) [Example 13] | – | – | – | – | – | – | – | > 250
O=C(O)c1c(F)ccc2c1OB(O)[C@@H](NC(=O)C(NC(=O)N1CCN(Cc3ccc(O)c(O)c3Cl)C(=O)C1=O)c1ccc(P(=O)(O)O)cc1)C2 (stereo partly drawn) [Example 8, (3R)-3-(2-(4-(2-chloro-3,4-dihydroxybenzyl)-2,3-dioxopiperazine-1-carboxamido)-2-(4-phosphonophenyl)acetamido)-7-fluoro-2-hydroxy-3,4-dihydro-2H-benzo[e][1,2]oxaborinine-8-carboxylic acid] | < 1 | < 1 | < 1 | < 1 | < 1 | < 1 | 2 to 4 (≈ 2.72 to 5.44 µM) | –
CS(=O)(=O)N1CCN(C(=O)NC(C(=O)N[C@H]2Cc3cccc(C(=O)O)c3OB2O)c2ccc(P(=O)(O)O)c(Cl)c2)C1=O (stereo partly drawn) [Example 11, (3R)-3-(2-(3-chloro-4-phosphonophenyl)-2-(3-(methylsulfonyl)-2-oxoimidazolidine-1-carboxamido)acetamido)-2-hydroxy-3,4-dihydro-2H-benzo[e][1,2]oxaborinine-8-carboxylic acid] | – | – | – | – | – | – | – | 50 to 250
